The source of these data is US5866787A, “Transgenic plants co-expressing a functional human 2-5A system” (Cleveland Clinic Foundation, priority 1995, dated 1999).

Some results are limits rather than exact numbers.

Assay [1] deals with recombinant human 2-5A-dependent RNase. Nature of the assay: UV covalent crosslinking of 2-5A probe with competitors, human enzyme. The note with it: competitor 100 nM; recombinant human enzyme produced in wheat germ extract. Type of assay: binding. How it is done:
FIG. 5A is specific affinity of recombinant human 2-5A-dependent RNase for 2-5A. Crosslinking of the 2-5A probe (lanes 1-7) to protein is performed after translation reaction in wheat germ extract (5 λl) with human 2-5A-dependent RNase mRNA (lanes 1-3) or without added RNA (lane 4) or in extract of human interferon a treated (1000 units per ml for 16 h) human HeLa cells (350 μg of protein) (lanes 5-7). Reactions were without added competitor (lanes 1, 4, and 5) or in the presence of either timer core, (A2'p)2 A, (100 nM) (lanes 2 and 6) or timer 2-5A, p3 (A2'p)2 A (100 nM) (lanes 3 and 7). Incubations with ^35 S-methionine are shown in lanes 8 to 12. Lane 8 is with wheat germ extract and human 2-5A-dependent RNase mRNA. Reticulocyte lysate preadsorbed to 2-5A-cellulose is incubated with human 2-5A-dependent RNase mRNA in the absence (lane 9) or presence (lane 10) of cycloheximide, or in the absence of added mRNA (lane 11). […] The positions and relative molecular masses (in kDa) of the marker proteins are indicated.
The synthesis of the 2-5A probe, p(A2'p)2 (br^8 A2'p)2 A[32P]Cp, and its crosslinking to 2-5A-dependent RNase is performed exactly as described. See Nolan-Sorden, N. L. et al., Anal. Biochem., 184:298-304 (1990). […]

The subject of assay [2] is murine 2-5A-dependent RNase (truncated recombinant clone ZB1 and murine L cell enzyme). Nature of the assay: UV covalent crosslinking of 32P-2-5A probe with unlabeled oligonucleotide competitors, murine enzyme. Format: binding. The conditions noted are these: for competition with 2-5A probe binding: competitor 100 nM, recombinant 74 kDa protein produced in wheat germ extract. As for the experimental part: FIG. 2A is a specific affinity of truncated murine 2-5A-dependent RNase for 2-5A. UV covalent crosslinking of the ^32 P-2-5A probe (lanes 1-7) to protein is performed after translation reactions in wheat germ extract (5 μl) with murine 2-5A-dependent RNase mRNA (from clone ZB1) (lanes 1-3) or without added RNA (lane 4) or in extract of interferon treated mouse L cells (100 μg of protein) (lanes 5-7). Reactions are without added competitor (lanes 1, 4, and 5) or in the presence of either timer core. (A2'p)2 A, (100 nM) (lanes 2 and 6) or timer 2-5A, p3 (A2'p)2 A (100 nM) (lanes 3 and 7).
Autoradiograms of the dried SDS/10% polyacrylamide gels are shown. Concentrations of the oligonucleotide competitors are indicated. […].
(§1) The synthesis of the 2-5A probe, p(A2'p)2 (br^8 A2'p)2 A[32P]Cp, and its crosslinking to 2-5A-dependent RNase is performed exactly as described. See Nolan-Sorden, N. L. et al., Anal. Biochem., 184:298-304 (1990). Briefly, the 2-5A probe, about 0.7 to 2.5 nM at […], is incubated for about one hour on ice with cell extract prepared as described, Silverman, R. H. and Krause, D., I.R.L. Press, Oxford, England, pp. 149-193 (1987), in the absence or presence of unlabeled oligonucleotide competitors. Covalent crosslinking is done under a uv lamp (308 nm) for one hour on ice and the proteins are separated on SDS/10% polyacrylamide gels. Filter assays for 2-5A binding activity using the 2-5A probe for about one hour on ice, as described in Knight, M. et al., Nature, 288:189-192 (1980).

The next assay concerns 2-5A probe. The experiment in a line: 2-5A binding activity of nested 3'-deletion clones (filter binding and uv crosslinking). The conditions noted are these: produced in wheat germ extract.
Source text: See Example and Knight et al. 1980). The positions of the P-loop motifs and the lengths of the translation products are indicated. Clone ZB1 encodes for amino acids designated as 1-656 in Table 2, except for the last 5 amino acid residues which are Lys, Pro, Leu, Ser, and Gly. Clone ZB2 encodes for amino acids designated as 1-619 in Table 2. Clone ZB3 encodes for amino acids designated as 1-515 in Table 2. Clone ZB5 encodes for amino acids designated as 1-474 in Table 2. Clone ZB9 encodes for amino acids designated as 1-403 in Table 2. Clone ZB10 encodes for amino acids designated as 1-365 in Table 2. Clone ZB13 encodes for amino acids designated as 1-294 in Table 2. Clone ZB14 encodes for amino acids designated as […] in Table 2. Clone ZB15 encodes for amino acids designated as 1-218 in Table 2.
The set of nested 3'-deletions of the truncated murine 2-5A-dependent RNase cDNA, ZB1, is generated with exonuclease III/S1 nuclease digestion followed by filling-in with Klenow DNA Polymerase using the "Erase-A-Base" system (Promega).
as §1

The next assay deals with poly(U). Nature of the assay: Ribonuclease assay with 2-5A-cellulose, poly(U) substrate. Type of assay: biochemical. The conditions noted are these: enzyme translated in reticulocyte lysate, bound to 2-5A-cellulose, 30° C. As for the experimental part: (§2) FIG. 5B is reticulocyte lysate pretreated to remove endogenous 2-5A-dependent RNase and is incubated in the absence of added mRNA (.box-solid.), in the presence of human 2-5A-dependent RNase mRNA without inhibitor (.smallcircle., .quadrature.) or in the presence of both 2-5A-dependent RNase mRNA and cycloheximide (50 μg per ml (.circle-solid.). See Example I. Subsequently, the recombinant 2-5A-dependent RNase (or controls) is adsorbed to 2-5A-cellulose and ribonuclease assays are performed after extensive washing of the matrix to reduce general nuclease activity. Radiolabeled substrate RNA was either poly(U) (.smallcircle., .circle-solid., .box-solid.) or poly(C) (.quadrature.).
(§3) The ribonuclease assay with 2-5A-cellulose is performed, as described by Silverman, R. H., Anal. Biochem., 144:450-460 (1985). Briefly, lysates are adsorbed to about […] of 2-5A-cellulose on ice for about two hours. The matrix is then washed three times by centrifuging and resuspending in buffer A. See Silverman, R. H., Anal. Biochem., 144:450-460 (1985). The matrix is then incubated with poly(U)-[^32 P]Cp or poly(C)-[^32 P]Cp (both at about 16 μM in nucleotide equivalents) at about 30° C. and the levels of acid-precipitable radioactive RNA are determined by filtration on glass-fiber filters.

In another assay the test system is poly(C). Nature of the assay: Ribonuclease assay with 2-5A-cellulose, poly(C) substrate. Type of assay: biochemical. The note with it: after one hour of incubation. How it is done: as §2, §3
The mark [3] stands for this setting: 2-5A probe 2.4 nM, both recombinant and naturally occurring protein.

In the case of (A2'p)2 A, the “competition with 2-5A probe binding” value was “not prevented” in assay [1] and “fails to interfere with binding” in assay [2]. The “concentration required to prevent 2-5A probe binding” value (“concentration required” for short) in assay [2] (setting [3]) was determined as 10 µM. The “fold higher concentration than trimer 2-5A required to prevent probe binding” value in assay [2] (relative to p3 (A2'p)2 A at about 20 nM) is 500 fold.

With p3 (A2'p)2 A, the entries for the “competition with 2-5A probe binding” value in assay [1] and in assay [2] were “effectively competes” and “completely prevents probe binding”, respectively. Besides, in assay [2] (setting [3]), the “concentration that prevents the 2-5A probe from binding” value was “about 20 nM”.

Take p3 A2'pA: the “concentration required” value in assay [2] (setting [3]) was above 10 µM.

Regarding p3 I2'pA2'pA, the “concentration required” value in assay [2] (setting [3]) was “about 1.0 μM”.

B1: ZB13: murine 2-5A-dependent RNase deletion clone, amino acids 1 to 294 (protein, UniProt Q05921 1-294, looked up, fragment)
chain: METPDYNTPQGGTPSAGSQRTVVEDDSSLIKAVQKGDVVRVQQLLEKGADANACEDTWGWTPLHNAVQAGRVDIVNLLLSHGADPHRRKKNGATPFIIAGIQGDVKLLEILLSCGADVNECDENGFTAFMEAAERGNAEALRFLFAKGANVNLRRQTTKDKRRLKQGGATALMSAAEKGHLEVLRILLNDMKAEVDARDNMGRNALIRTLLNWDCENVEEITSILIQHGADVNVRGERGKTPLIAAVERKHTGLVQMLLSREGINIDARDNEGKTALLIAVDKQLKEIVQLLLE
Turning to B1, the “2-5A binding activity, % of clone ZB1” value in the assay on 2-5A probe is “about 38.3%”.

B2: ZB11: murine 2-5A-dependent RNase deletion clone, amino acid residues 1 to 342 (protein, UniProt Q05921 1-342, looked up, fragment)
chain: METPDYNTPQGGTPSAGSQRTVVEDDSSLIKAVQKGDVVRVQQLLEKGADANACEDTWGWTPLHNAVQAGRVDIVNLLLSHGADPHRRKKNGATPFIIAGIQGDVKLLEILLSCGADVNECDENGFTAFMEAAERGNAEALRFLFAKGANVNLRRQTTKDKRRLKQGGATALMSAAEKGHLEVLRILLNDMKAEVDARDNMGRNALIRTLLNWDCENVEEITSILIQHGADVNVRGERGKTPLIAAVERKHTGLVQMLLSREGINIDARDNEGKTALLIAVDKQLKEIVQLLLEKGADKCDDLVWIARRNHDYHLVKLLLPYVANPDTDPPAGDWSPHSSRW
For the molecule B2, the “loss of 2-5A binding activity as compared to clone ZB1” value in the assay with 2-5A probe is “about 26%”.

B3: ZB14: murine 2-5A-dependent RNase deletion clone, amino acids 1 to 265, one P-loop motif deleted (protein, UniProt Q05921 1-265, looked up, fragment)
chain: METPDYNTPQGGTPSAGSQRTVVEDDSSLIKAVQKGDVVRVQQLLEKGADANACEDTWGWTPLHNAVQAGRVDIVNLLLSHGADPHRRKKNGATPFIIAGIQGDVKLLEILLSCGADVNECDENGFTAFMEAAERGNAEALRFLFAKGANVNLRRQTTKDKRRLKQGGATALMSAAEKGHLEVLRILLNDMKAEVDARDNMGRNALIRTLLNWDCENVEEITSILIQHGADVNVRGERGKTPLIAAVERKHTGLVQMLLSREGIN
Consider B3, for which the “2-5A binding activity, % of clone ZB1” value with 2-5A probe amounted to 1.9%.

B4: ZB15: murine 2-5A-dependent RNase deletion clone, amino acids 1 to 218, both P-loop motifs deleted (protein, UniProt Q05921 1-218, looked up, fragment)
chain: METPDYNTPQGGTPSAGSQRTVVEDDSSLIKAVQKGDVVRVQQLLEKGADANACEDTWGWTPLHNAVQAGRVDIVNLLLSHGADPHRRKKNGATPFIIAGIQGDVKLLEILLSCGADVNECDENGFTAFMEAAERGNAEALRFLFAKGANVNLRRQTTKDKRRLKQGGATALMSAAEKGHLEVLRILLNDMKAEVDARDNMGRNALIRTLLNWDCENV
Consider B4, for which the “2-5A binding activity, % of clone ZB1” value in the assay on 2-5A probe is listed as “completely lacking”.

B5: recombinant human 2-5A-dependent RNase: full-length human 2-5A-dependent RNase (clone ZC5) produced in vitro in reticulocyte lysate (protein)
chain: MESRDHNNPQEGPTSSSGRRAAVEDNHLLIKAVQNEDVDLVQQLLEGGANVNFQEEEGGWTPLHNAVQMSREDIVELLLRHGADPVLRKKNGATLFILAAIAGSVKLLKLFLSKGADVNECDFYGFTAFMEAAVYGKVKALKFLYKRGANVNLRRKTKEDQERLRKGGATALMDAAEKGHVEVLKILLDEMGADVNACDNMGRNALIHALLSSDDSDVEAITHLLLDHGADVNVRGERGKTPLILAVEKKHLGLVQRLLEQEHIEINDTDSDGKTALLLAVELKLKKIAELLCKRGASTDCGDLVMTARRNYDHSLVKVLLSHGAKEDFHPPAEDWKPQSSHWGAALKDLHRIYRPMIGKLKFFIDEKYKIADTSEGGIYLGFYEKQEVAVKTFCEGSPRAQREVSCLQSSRENSHLVTFYGSESHRGHLFVCVTLCEQTLEACLDVHRGEDVENEEDEFARNVLSSIFKAVQELHLSCGYTHQDLQPQNILIDSKKAAHLADFDKSIKWAGDPQEVKRDLEDLGRLVLYVVKKGSISFEDLKAQSNEEVVQLSPDEETKDLIHRLFHPGEHVRDCLSDLLGHPFFWTWESRYRTLRNVGNESDIKTRKSESEILRLLQPGPSEHSKSFDKWTTKINECVMKKMNKFYEKRGNFYQNTVGDLLKFIRNLGEHIDEEKHKKMKLKIGDPSLYFQKTFPDLVIYVYTKLQNTEYRKHFPQTHSPNKPQCDGAGGASGLASPGC
In the case of B5, the “half-life of poly(U) degradation” value in the assay with poly(U) is on record as “about 10 minutes”. Besides, the “poly(C) degraded” value in the assay with poly(C) is 20%.
